Results published in patent US5508450A, “Benzopyran derivatives” (Ono Pharmaceutical Co., Ltd., priority 1989, dated 1996).
Counter-ions that a name gives are not always drawn.

Test system: Lysozyme (dimer formation with fructose)
Test: Inhibitory activity on Maillard reaction: formation of lysozyme dimer (lysozyme + fructose, SDS-PAGE, densitometer)
Assay type: biochemical
Conditions: lysozyme 10 mg/ml, fructose 100 mM, 0.2M sodium phosphate buffer pH 7.4, 37° C., 3 days
Procedure: The inhibitory activity on Maillard reaction of the compounds of the present invention has confirmed by the screening system mentioned below. Lysozyme (10 mg/ml) and fructose (100 mM) were dissolved in 0.2M sodium phosphatic buffer solution (PH 7.4). The solution was incubated at a temperature of 37° C. for 3 days. A given volume of the reaction solution was separated using SDS-PAGE by the electrophoresis. After the electrophoresis, the SDS-PAGE was dyed by 0.2% Coomassie Brilliant Blue R-250 and then the dimer was determined by densitometer. The compounds of the present invention were added before incubation and the inhibitory activity of them against the formation of the dimer was examined in various concentrations and IC50 values were calculated.

IC50 [µM] | SMILES
12 | Cc1c(C)c2c(c(C)c1O)CCC(C)(CCOc1ccc(NC(=O)c3ccc(NC(=N)N)cc3)cc1C(F)(F)F)O2 (centres unmarked) [7 (k), N-[4-[2-(6-hydroxy-2,5,7,8-tetramethyl-3,4-dihydro-2H-benzo[1,2-b]pyran-2-yl)-ethoxy]-3-trifluoromethyl-phenyl]-4-guanidinobenzamidehydrochloride]
54 | Cc1c(C)c2c(c(C)c1O)CCC(C)(CCOc1ccc(NC(=O)COc3ccc(NC(=N)N)cc3)cc1)O2 (centres unmarked) [7 (l), N-[4-[2-(6-hydroxy-2,5,7,8-tetramethyl-3,4-dihydro-2H-benzo[1,2-b]pyran-2-yl)-ethoxy]phenyl]-4-guanidinophenoxyacetamidehydrochloride]
12 | Cc1c(C)c2c(c(C)c1O)CCC(C)(CCOc1ccc(NC(=O)c3cccc(NC(=N)N)c3)cc1C(F)(F)F)O2 (centres unmarked) [7 (m), N-[4-[2-(6-hydroxy-2,5,7,8-tetramethyl-3,4-dihydro-2H-benzo[1,2-b]pyran-2-yl)-ethoxy]-3-trifluoromethyl-phenyl]-3-guanidinobenzamidehydrochloride]
10 | Cc1c2c(c3ccccc3c1O)OC(C)(CCOc1ccc(NC(=O)/C=C/c3ccc(NC(=N)N)cc3)cc1)CC2 (centres unmarked) [7 (n), N-[4-[2-(2,5-dimethyl-6-hydroxy-3,4-dihydro-2H-naphtho[1,2-b]pyran-2-yl)-ethoxy]phenyl]-4-guanidino-cinnamamide hydrochloride]
17 | Cc1c(C)c2c(c(C)c1O)CCC(C)(CCSc1ccc(NC(=O)CSc3ccc(NC(=N)N)cc3)cc1)O2 (centres unmarked) [7 (t), N-[4-[2-(6-hydroxy-2,5,7,8-tetramethyl-3,4-dihydro-2H-benzo[1,2-b]pyran-2-yl)-ethylthio]phenyl]-4-guanidinophenylthioacetamidehydrochloride]
5.4 | Cc1c(C)c2c(c(C)c1O)CCC(C)(CCCCSc1ccc(NC(=O)/C=C/c3ccc(NC(=N)N)cc3)cc1)O2 (centres unmarked) [9 (d), N-[4-[4-(6-hydroxy-2,5,7,8-tetramethyl-3,4-dihydro-2H-benzo[1,2-b]pyran-2-yl)-butylthio]phenyl]-4-guanidinocinnamamidehydrochloride]
4.8 | Cc1c2c(c3ccccc3c1O)OC(C)(CCCCSc1ccc(NC(=O)c3ccc(NC(=N)N)cc3)cc1)CC2 (centres unmarked) [9 (j), N-[4-[4-(2,5-dimethyl-6-hydroxy-3,4-dihydro-2H-naphtho[1,2-b]pyran-2-yl)-butylthio]phenyl]-4-guanidinobenzamidehydrochloride]
21 | Cc1c(C)c2c(c(C)c1O)CCC(C)(CCCCOc1ccc(NC(=N)N)cc1C(F)(F)F)O2 (centres unmarked) [10 (a), 2-trifluoromethyl-4-guanidinophenyl 4-(6-hydroxy-2,5,7,8-tetramethyl-3,4-dihydro-2H-benzo[1,2-b]-pyran-2-yl)butyl ether hydrochloride]
36 | Cc1c(C)c2c(c(C)c1O)CCC(C)(CCCCSc1ccc(NC(=N)N)cc1)O2 (centres unmarked) [10 (e), 4-guanidinophenyl 4-(6-hydroxy-2,5,7,8-tetramethyl-3,4-dihydro-2H-benzo[1,2-b]pyran-2-yl)butyl thioether hydrochloride]
500 | Cc1c(C)c2c(c(C)c1O)CCC(C)(CCCCNC(=O)COc1ccc(NC(=N)N)cc1)O2 (centres unmarked) [22 (a), N-[4-(6-hydroxy-2,5,7,8-tetramethyl-3,4-dihydro-2H-benzo[1,2,-b]pyran-2-yl)butyl]-2-(4-guanidinophenoxy)acetamide hydrochloride]
68 | Cc1c(C)c2c(c(C)c1O)CCC(C)(CCN(Cc1ccccc1)C(=O)/C=C/c1ccc(NC(=N)N)cc1)O2 (centres unmarked) [24 (a), N-benzyl-N-[2-(6-hydroxy-2,5,7,8-tetramethyl-3,4-dihydro-2H-benzo[1,2-b]pyran-2-yl)ethyl]-4-guanidinocinnamamide hydrochloride]
190 | Cc1c(C)c2c(c(C)c1O)CCC(C)(CCSCCOc1ccc(NC(=N)N)cc1)O2 (centres unmarked) [27 (b), 4-guanidinophenyl 2-[2-(6-hydroxy-2,5,7,8-tetramethyl-3,4-dihydro-2H-benzo[1,2-b]-pyran-2-yl)ethylthio]ethyl ether hydrochloride]
5.6 | Cc1c(C)c2c(c(C)c1O)CCC(C)(CCOc1ccc(CCCOc3ccc(NC(=N)N)cc3)cc1)O2 (centres unmarked) [27 (f), 4-guanidinophenyl 3-[4-[2-(6-hydroxy-2,5,7,8-tetramethyl-3,4-dihydro-2H-benzo[1,2-b]-pyran-2-yl)ethoxy]phenyl]-propyl ether hydrochloride]
20 | Cc1c(C)c2c(c(C)c1O)CCC(C)(CCCCCCOc1ccc(NC(=N)N)cc1)O2 (centres unmarked) [29 (a), 4-guanidinophenyl 6-(6-hydroxy-2,5,7,8-tetramethyl-3,4-dihydro-2H-benzo[1,2-b]pyran-2-yl)-n-hexyl ether hydrochloride]
150 | Cc1c(C)c2c(c(C)c1O)CCC(C)(CCOCc1ccc(CNC(=N)NN)cc1)O2 (centres unmarked) [Example 4, 4-(3-aminoguamidinomethyl)benzyl 2-(6-hydroxy-2,5,7,8-tetramethyl-3,4-dihydro-2H-benzo[1,2-b]pyran-2-yl)ethyl ether hydroiodide]
320 | Cc1c(C)c2c(c(C)c1O)CCC(C)(CCOc1ccc(NC(=N)N)cc1)O2 (centres unmarked) [Example 5, 4-guanidinophenyl 2-(6-hydroxy-2,5,7,8-tetramethyl-3,4-dihydro-2H-benzo[1,2-b]pyran-2-yl)ethyl ether hydrochloride]
300 | Cc1c(C)c2c(c(C)c1O)CCC(C)(CCCCNC(=N)NN)O2 (centres unmarked) [Example 8, 1-amino-3-[4-(6-hydroxy-2,5,7,8-tetramethyl-3,4-dihydro-2H-benzo[1,2-b]pyran-2-yl)butyl]guanidine hydroiodide]
75 | Cc1c(C)c2c(c(C)c1O)CCC(C)(CCCCOc1ccc(NC(=N)N)cc1)O2 (centres unmarked) [Example 10, 4-guanidinophenyl 4-(6-hydroxy-2,5,7,8-tetramethyl-3,4-dihydro-2H-benzo[1,2-b]pyran-2-yl)butyl ether hydrochloride]
200 | Cc1c(C)c2c(c(C)c1O)CCC(C)(CCCCNC(=O)Nc1cccc(NC(=N)N)c1)O2 (centres unmarked) [Example 12, 1-[4-(6-hydroxy-2,5,7,8-tetramethyl-3,4-dihydro-2H-benzo[1,2-b]pyran-2-yl)butyl]-3-(3-guanidinophenyl)urea hydrochloride]
220 | CCOC(=O)c1cc(NC(=N)N)cc(C(=O)NCCC2(C)CCc3c(C)c(O)c(C)c(C)c3O2)c1 (centres unmarked) [Example 14, N-[2-(6-hydroxy-2,5,7,8-tetramethyl-3,4-dihydro-2H-benzo[1,2-b]pyran-2-yl)ethyl]-3-ethoxycarbonyl-5-guanidinobenzamide hydrochloride]
220 | CCOC(=O)c1cc(NC(=N)N)ccc1OCCC1(C)CCc2c(C)c(O)c(C)c(C)c2O1 (centres unmarked) [Example 15, 2-ethoxycarbonyl-4-guanidinophenyl 2-(6-hydroxy-2,5,7,8-tetramethyl-3,4-dihydro-2H-benzo[1,2-b]pyran-2-yl)ethyl ether hydrochloride]
13 | CCOC(=O)c1cc(NC(=N)N)cc(C(=O)Nc2ccc(OCCC3(C)CCc4c(C)c(O)c(C)c(C)c4O3)cc2)c1 (centres unmarked) [Example 17, N-[4-[2-(6-hydroxy-2,5,7,8-tetramethyl-3,4-dihydro-2H-benzo[1,2-b]pyran-2-yl)ethoxy]phenyl]-3-ethoxycarbonyl-5-guanidinobenzamide hydrochloride]
56 | Cc1c(C)c2c(c(C)c1O)CCC(C)(CCOc1ccc(CCCNC(=N)NN)cc1)O2 (centres unmarked) [Example 19, 4-[3-(3-aminoguanidino)propyl]phenyl 2-(6-hydroxy-2,5,7,8-tetramethyl-3,4-dihydro-2H-benzo[1,2-b]pyran-2-yl)ethyl ether hydroiodide]
220 | Cc1c(C)c2c(c(C)c1O)CCC(C)(CCOCCNC(=O)/C=C/c1ccc(NC(=N)N)cc1)O2 (centres unmarked) [Example 21, N-[2-[2-(6-hydroxy-2,5,7,8-tetramethyl-3,4-dihydro-2H-benzo[1,2-b]pyran-2-yl)ethoxy]ethyl]-4-guanidinocinnamamide hydrochloride]

SMILES | IC50 [µM]
Cc1c(C)c2c(c(C)c1O)CCC(C)(CCCCOc1ccc(NC(=O)c3ccc(NC(=N)N)cc3)cc1)O2 (centres unmarked) [9 (a), N-[4-[4-(6-hydroxy-2,5,7,8-tetramethyl-3,4-dihydro-2H-benzo[1,2-b]pyran-2-yl)-butoxy]phenyl]-4-guanidinobenzamidehydrochloride] | 10
Cc1c(C)c2c(c(C)c1O)CCC(C)(CCCCOc1ccc(NC(=O)/C=C/c3ccc(NC(=N)N)cc3)cc1C(F)(F)F)O2 (centres unmarked) [9 (l), N-[4-[4-(6-hydroxy-2,5,7,8-tetramethyl-3,4-dihydro-2H-benzo[1,2-b]pyran-2-yl)-butoxy]-3-trifluoromethyl-phenyl]-4-guanidino-cinnamamide hydrochloride] | 6.6
CCOC(=O)c1cc(NC(=N)N)cc(C(=O)Nc2ccc(OCCCCC3(C)CCc4c(C)c(O)c(C)c(C)c4O3)cc2)c1 (centres unmarked) [9 (m), N-[4-[4-(6-hydroxy-2,5,7,8-tetramethyl-3,4-dihydro-2H-benzo[1,2-b]pyran-2-yl)-butoxy]phenyl]-3-guanidino-5-ethoxycarbonylbenzamidehydrochloride] | 9
Cc1c(C)c2c(c(C)c1O)CCC(C)(CCCCOc1ccc(CCSc3ccc(NC(=N)N)cc3)cc1)O2 (centres unmarked) [28 (c), 4-guanidinophenyl 2-[4-[4-(6-hydroxy-2,5,7,8-tetramethyl-3,4-dihydro-2H-benzo[1,2-b]-pyran-2-yl)butoxy]phenyl]-ethyl thioether hydrochloride] | 4.2
Cc1c(C)c2c(c(C)c1O)CCC(C)(CCCCOc1ccc(NC(=O)/C=C/c3ccc(NC(=N)N)cc3)cc1)O2 (centres unmarked) [Example 9, N-[4-[4-(6-hydroxy-2,5,7,8-tetramethyl-3,4-dihydro-2H-benzo[1,2-b]pyran-2-yl)butoxy]phenyl]-4-guanidinocinnamamide hydrochloride] | 6.2
